From PubChem BioAssay (NCI)
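Where inhibition never reached the appropriate level, the endpoint shown equals the highest concentration tested. Otherwise, values were interpolated linearly from a five-concentration, 48-hour dose response in 96-well plates. At the TGI there is no net growth.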

Experiments:
Assay in all cases: inhibition of tumour cell growth, NCI panel, 48 h
HCT-116 colon = system: HCT-116 colon
M14 melanoma = system: M14 melanoma
HCT-15 colon = system: HCT-15 colon
MALME-3M melanoma = system: MALME-3M melanoma
HT29 colon = system: HT29 colon
CAKI-1 renal = system: CAKI-1 renal
UACC-257 melanoma = system: UACC-257 melanoma
MDA-MB-231 breast = system: MDA-MB-231 breast
HOP-62 NSCLC = system: HOP-62 NSCLC
NCI/ADR-RES ovarian = system: NCI/ADR-RES ovarian
CCRF-CEM leukemia = system: CCRF-CEM leukemia
T-47D breast = system: T-47D breast
UACC-62 melanoma = system: UACC-62 melanoma
SK-MEL-2 melanoma = system: SK-MEL-2 melanoma
IGROV1 ovarian = system: IGROV1 ovarian
HS 578T breast = system: HS 578T breast
TK-10 renal = system: TK-10 renal
A498 renal = system: A498 renal
RPMI-8226 leukemia = system: RPMI-8226 leukemia
SNB-19 CNS = system: SNB-19 CNS
OVCAR-8 ovarian = system: OVCAR-8 ovarian
COLO 205 colon = system: COLO 205 colon
SF-268 CNS = system: SF-268 CNS
SK-OV-3 ovarian = system: SK-OV-3 ovarian
SN12C renal = system: SN12C renal
MDA-N = system: MDA-N
SF-295 CNS = system: SF-295 CNS
786-0 renal = system: 786-0 renal
ACHN renal = system: ACHN renal
UO-31 renal = system: UO-31 renal
MOLT-4 leukemia = system: MOLT-4 leukemia
NCI-H522 lung = system: NCI-H522 lung
MDA-MB-435 = system: MDA-MB-435
OVCAR-4 ovarian = system: OVCAR-4 ovarian
KM12 colon = system: KM12 colon
BT-549 breast = system: BT-549 breast
SW-620 colon = system: SW-620 colon
SK-MEL-5 melanoma = system: SK-MEL-5 melanoma
NCI-H226 lung = system: NCI-H226 lung
U251 CNS = system: U251 CNS
RXF 393 renal = system: RXF 393 renal
SK-MEL-28 melanoma = system: SK-MEL-28 melanoma
OVCAR-3 ovarian = system: OVCAR-3 ovarian
HOP-92 NSCLC = system: HOP-92 NSCLC
LOX IMVI melanoma = system: LOX IMVI melanoma
SF-539 CNS = system: SF-539 CNS
SNB-75 CNS = system: SNB-75 CNS
HCC-2998 colon = system: HCC-2998 colon
EKVX NSCLC = system: EKVX NSCLC
A549 NSCLC = system: A549 NSCLC
DU-145 prostate = system: DU-145 prostate
MCF7 breast = system: MCF7 breast
NCI-H23 lung = system: NCI-H23 lung
PC-3 prostate = system: PC-3 prostate
OVCAR-5 ovarian = system: OVCAR-5 ovarian
NCI-H460 lung = system: NCI-H460 lung
HL-60(TB) leukemia = system: HL-60(TB) leukemia
K-562 leukemia = system: K-562 leukemia

Measured: TGI

CCSc1n/c(=C\c2ccco2)c2nnnn12
not listed: NCI-H460 lung | HL-60(TB) leukemia | K-562 leukemia
> 100 µM: all other assays above

O=C(O)c1n[nH]nc1Cl
not listed: CAKI-1 renal | SNB-19 CNS | MOLT-4 leukemia | HOP-92 NSCLC
> 100 µM: all other assays above
